Measured values reported in patent US11696917B2, “Agent enhancing antitumor effect using pyrazolo[3,4-d]pyrimidine compound” (TAIHO PHARMACEUTICAL CO., LTD., priority 2017, dated 2023).

System: NCI-N87 (human stomach cancer)
Experiment: Combination of Compound 1 and other antitumor agents (in vitro), CellTiter-Glo, median effect method
Assay type: cell-based
Description: The supplier of each reagent, the suppliers of tumor cell lines, the media used, and the numbers of cells to be inoculated are shown in the tables below.
The cells were inoculated at 20 μL/well to a 384-well culture plate (Corning Inc.). The plate inoculated with the cells were cultured in an incubator set to 37° C. and 5% CO2. On the day following inoculation, each of mixed solutions of Compound 1 and each other antitumor agent at varying combinations of concentrations was added to the cells. Specifically, 8 serial dilutions (including (0 nM)) of Compound 1 and 10 serial dilutions (including (0 nM)) of the other antitumor agent were prepared using Leibovitz's L-15 medium containing 10% FBS, or ATCC formulated RPMI-1640 medium containing 10% FBS. Drug solutions in which equal amounts of the respective serial dilutions of the compounds were dispensed were mixed at a ratio of 1:1 to prepare a total of 80 mixed drug solutions including every combination. Each of these mixed drug solutions was added at 5 μL/well (N=4) to the plate, followed by further culture for 3 days under conditions of 37° C. and 5% CO2.
Three days later, CellTiter-Glo™ 2.0 Reagent (Promega Corporation) was added thereto at 25 μL/well, and chemiluminescence was measured using a plate reader (EnSpire® Multimode Plate Reader, PerkinElmer Japan Co., Ltd.).
The enhancement of an effect by combined use of the drugs was evaluated according to a method known in the art (a method described in Trends Pharmacol. Sci., 4, 450-454, 1983 or Pharmacol Rev., 58 (3), 621-81, 2006).
An average value from 4 wells of each combination was calculated from the obtained data, and a cell survival rate normalized against a control supplemented with a medium containing a vehicle was calculated. A Fa (fraction of affect) value was calculated by subtracting the cell survival rate from 1. Median effect analysis software CalcuSyn 2.0 (CalcuSyn, Inc.) for calculation by the median effect method was used in the calculation of CI.
As for the combinations of the concentrations of both the drugs for calculating CI, a Fa value closer to 1 presumably means a concentration range in which one of the drugs had too strong an effect, and a Fa value closer to 0 presumably means a concentration range in which any of the drugs had too weak an effect. Since these concentration ranges were not appropriate for the discussion of a synergistic effect, combinations that satisfied 0.2 S Fa 0.8 were extracted from the combinations of the respective concentrations of Compound 1 and the other antitumor agent on the basis of the calculated Fa value.
An effect of combined use was determined as shown in the table below (Pharmacol Rev., 58 (3), p. 621-81, 2006).

[1] = Compound 1 3.70 nM + FdUrd 333333 nM, ratio 1:90000, NCI-N87
[2] = Compound 1 3.70 nM + Gemcitabine 1.37 nM, ratio 1:0.37, NCI-N87
[3] = Compound 1 3.70 nM + Gemcitabine 4.12 nM, ratio 1:1.1, NCI-N87
[4] = Compound 1 3.70 nM + Gemcitabine 12.3 nM, ratio 1:3.3, NCI-N87
[5] = Compound 1 3.70 nM + Gemcitabine 37.0 nM, ratio 1:10, NCI-N87
[6] = Compound 1 3.70 nM + Gemcitabine 111 nM, ratio 1:30, NCI-N87
[7] = Compound 1 3.70 nM + Gemcitabine 333 nM, ratio 1:90, NCI-N87
[8] = Compound 1 3.70 nM + Paclitaxel 1.85 nM, ratio 1:0.50, NCI-N87
[9] = Compound 1 3.70 nM + Paclitaxel 5.56 nM, ratio 1:1.5, NCI-N87
[10] = Compound 1 3.70 nM + Paclitaxel 16.7 nM, ratio 1:4.5, NCI-N87
[11] = Compound 1 3.70 nM + Trifluridine 12346 nM, ratio 1:3333, NCI-N87
[12] = Compound 1 3.70 nM + Trifluridine 37037 nM, ratio 1:10000, NCI-N87
[13] = Compound 1 3.70 nM + Trifluridine 111111 nM, ratio 1:30000, NCI-N87
[14] = Compound 1 11.1 nM + Cisplatin 687 nM, ratio 1:62, NCI-N87
[15] = Compound 1 11.1 nM + Cisplatin 2062 nM, ratio 1:186, NCI-N87
[16] = Compound 1 11.1 nM + Cisplatin 6185 nM, ratio 1:557, NCI-N87
[17] = Compound 1 11.1 nM + Cisplatin 18556 nM, ratio 1:1670, NCI-N87
[18] = Compound 1 11.1 nM + Cisplatin 55667 nM, ratio 1:5010, NCI-N87
[19] = Compound 1 11.1 nM + FdUrd 4115 nM, ratio 1:370, NCI-N87
[20] = Compound 1 11.1 nM + FdUrd 12346 nM, ratio 1:1111, NCI-N87
[21] = Compound 1 11.1 nM + FdUrd 37037 nM, ratio 1:3333, NCI-N87
[22] = Compound 1 11.1 nM + FdUrd 111111 nM, ratio 1:10000, NCI-N87
[23] = Compound 1 11.1 nM + FdUrd 333333 nM, ratio 1:30000, NCI-N87
[24] = Compound 1 11.1 nM + FdUrd 1000000 nM, ratio 1:90000, NCI-N87
[25] = Compound 1 11.1 nM + Paclitaxel 0.206 nM, ratio 1:0.019, NCI-N87
[26] = Compound 1 11.1 nM + Paclitaxel 0.617 nM, ratio 1:0.056, NCI-N87
[27] = Compound 1 11.1 nM + Paclitaxel 1.85 nM, ratio 1:0.17, NCI-N87
[28] = Compound 1 11.1 nM + Paclitaxel 5.56 nM, ratio 1:0.50, NCI-N87
[29] = Compound 1 11.1 nM + Trifluridine 4115 nM, ratio 1:370, NCI-N87
[30] = Compound 1 11.1 nM + Trifluridine 12346 nM, ratio 1:1111, NCI-N87
[31] = Compound 1 11.1 nM + Trifluridine 37037 nM, ratio 1:3333, NCI-N87
[32] = Compound 1 11.1 nM + Trifluridine 111111 nM, ratio 1:10000, NCI-N87
[33] = Compound 1 33.3 nM + Cisplatin 2062 nM, ratio I:62, NCI-N87
[34] = Compound 1 33.3 nM + FdUrd 12346 nM, ratio 1:370, NCI-N87
[35] = Compound 1 […] + Gemcitabine 4.12 nM, ratio 1:10, NCI-N87
[36] = Compound 1 […] + Gemcitabine 12.3 nM, ratio 1:30, NCI-N87
[37] = Compound 1 […] + Gemcitabine 37.0 nM, ratio 1:90, NCI-N87

Q: C=CC(=O)N1CCC[C@@H](n2nc(C(=O)Nc3ccc(CC(=O)N(C)C)c(C)c3C)c3c(N)ncnc32)C1 [Compound 1, (R)-1-(1-acryloylpiperidin-3-yl)-4-amino-N-(4-(2-(dimethylamino)-2-oxoethyl)-2,3-dimethylphenyl)-1H-pyrazolo[3,4-d]pyrimidine-3-carboxamide] was tested. Which CI [1] did it give?
A: 0.47

Q: What about the Fa [1] of the same compound?
A: 0.62

Q: What about the CI [2] of the same compound?
A: 0.15

Q: What about the Fa [2] of the same compound?
A: 0.75

Q: And the CI [3]?
A: 0.12

Q: And the Fa [3]?
A: 0.77

Q: What about the CI [4] of the same compound?
A: 0.10

Q: And the Fa [4]?
A: 0.80

Q: And the CI [5]?
A: 0.11

Q: What about the Fa [5] of the same compound?
A: 0.78

Q: And the CI [6]?
A: 0.11

Q: And the Fa [6]?
A: 0.78

Q: What about the CI [7] of the same compound?
A: 0.12

Q: And the Fa [7]?
A: 0.77

Q: And the CI [8]?
A: 0.84

Q: What about the Fa [8] of the same compound?
A: 0.41

Q: What about the CI [9] of the same compound?
A: 0.42

Q: And the Fa [9]?
A: 0.64

Q: What about the CI [10] of the same compound?
A: 0.55

Q: And the Fa [10]?
A: 0.71

Q: What about the CI [11] of the same compound?
A: 0.51

Q: And the Fa [11]?
A: 0.57

Q: What about the CI [12] of the same compound?
A: 0.51

Q: What about the Fa [12] of the same compound?
A: 0.61

Q: And the CI [13]?
A: 0.51

Q: And the Fa [13]?
A: 0.67

Q: And the CI [14]?
A: 0.87

Q: What about the Fa [14] of the same compound?
A: 0.59

Q: And the CI [15]?
A: 0.71

Q: What about the Fa [15] of the same compound?
A: 0.64

Q: And the CI [16]?
A: 0.48

Q: And the Fa [16]?
A: 0.74

Q: And the CI [17]?
A: 0.50

Q: And the Fa [17]?
A: 0.77

Q: And the CI [18]?
A: 0.90

Q: And the Fa [18]?
A: 0.79

Q: And the CI [19]?
A: 0.79

Q: What about the Fa [19] of the same compound?
A: 0.61

Q: And the CI [20]?
A: 0.55

Q: And the Fa [20]?
A: 0.68

Q: And the CI [21]?
A: 0.58

Q: And the Fa [21]?
A: 0.67

Q: What about the CI [22] of the same compound?
A: 0.46

Q: What about the Fa [22] of the same compound?
A: 0.73

Q: And the CI [23]?
A: 0.52

Q: What about the Fa [23] of the same compound?
A: 0.75

Q: What about the CI [24] of the same compound?
A: 0.31

Q: What about the Fa [24] of the same compound?
A: 0.79

Q: What about the CI [25] of the same compound?
A: 0.58

Q: What about the Fa [25] of the same compound?
A: 0.69

Q: What about the CI [26] of the same compound?
A: 0.52

Q: What about the Fa [26] of the same compound?
A: 0.71

Q: And the CI [27]?
A: 0.61

Q: What about the Fa [27] of the same compound?
A: 0.69

Q: What about the CI [28] of the same compound?
A: 0.44

Q: What about the Fa [28] of the same compound?
A: 0.78

Q: And the CI [29]?
A: 0.79

Q: What about the Fa [29] of the same compound?
A: 0.69

Q: And the CI [30]?
A: 0.51

Q: What about the Fa [30] of the same compound?
A: 0.77

Q: What about the CI [31] of the same compound?
A: 0.63

Q: What about the Fa [31] of the same compound?
A: 0.74

Q: What about the CI [32] of the same compound?
A: 0.49

Q: And the Fa [32]?
A: 0.80

Q: What about the CI [33] of the same compound?
A: 0.73

Q: What about the Fa [33] of the same compound?
A: 0.80

Q: And the CI [34]?
A: 0.76

Q: And the Fa [34]?
A: 0.80

Q: And the CI [35]?
A: 0.21

Q: And the Fa [35]?
A: 0.68

Q: And the CI [36]?
A: 0.23

Q: What about the Fa [36] of the same compound?
A: 0.69

Q: What about the CI [37] of the same compound?
A: 0.02

Q: What about the Fa [37] of the same compound?
A: 0.71
